From patent US20250154170A1, “FUSED PYRIMIDINES AS KRAS INHIBITORS” (priority 2022, published 2025)
Several values for one entry are separate records, joined by “and”; a condition that tells them apart may be missing. Identical values can stand only once.

Experiments:
K-Ras G12D = K-Ras G12D (Homo sapiens, UniProt P01116, G12D); assay: K-Ras G12D activation by SOS1 (KRAS G12D activation by SOS1cat assay, HTRF); format: biochemical; conditions: mean, SOS1cat mediated loading of GST-KRAS G12D-GDP with fluorescent GTP analogue, read-out: K-Ras G12D activation by SOS1 IC50 - [mol/l] (mean)
Description: (§1) Preparation of test compound dilutions. A 100-fold concentrated solution of the test compound (50 nL) in DMSO was transferred to microtiter test plates (384 or 1,536 wells, Greiner Bio-One, Germany) using either a Hummingbird liquid handler (Digilab, MA, USA) or an Echo acoustic system (Labcyte, CA, USA). Plates were sealed with adhesive foil or heat-sealed and stored at −20 C until use. Serial dilutions of test compounds were prepared in 100% DMSO using a Precision Pipetting System (BioTek, USA).
(§2) Measurement and evaluation of inhibition data, calculation of IC50 values. Homogeneous time-resolved fluorescence (HTRF) was measured with a PHERAstar reader (BMG, Germany) using the HTRF module (excitation: 337 nm; emission 1: 620 nm, emission 2: 665 nm). The ratio of the emissions at 665 and 620 nm was used as the specific signal for further evaluation. The data were normalized using the controls: DMSO=0% inhibition, inhibition control wells with inhibitor control solution=100% inhibition. Compounds were tested in duplicates at up to 11 concentrations (e.g. 20 μM, 5.7 μM, 1.6 μM, 0.47 μM, 0.13 μM, 38 nM, 11 nM, 3.1 nM, 0.89 nM, 0.25 nM and 0.073 nM). IC50 values were calculated using a four-parameter fit, with a commercial software package (Genedata Screener, Switzerland).
(§3) KRAS^G12C activation by SOS1^cat assay (“On-assay”). This assay quantifies SOS1^cat mediated loading of KRAS^G12C-GDP with a fluorescent GTP analogue. Detection of successful loading was achieved by measuring resonance energy transfer from anti-GST-terbium (FRET donor) bound to GST-KRAS^G12C to the loaded fluorescent GTP analogue (FRET acceptor). The fluorescent GTP analogue EDA-GTP-DY-647P1 [2′/3′-O-(2-aminoethyl-carbamoyl)guanosine-5′-triphosphate labelled with DY-647P1 (Dyomics GmbH, Germany)] was synthesized by Jena Bioscience (Germany) and supplied as a 1 mM aqueous solution. A KRAS^G12C working solution was prepared in assay buffer [10 mM HEPES pH 7.4 (AppliChem), 150 mM NaCl (Sigma), 5 mM MgCl2 (Sigma), 1 mM DTT (Thermo Fisher), 0.05% BSA Fraction V pH 7.0 (ICN Biomedicals), 0.0025% (v/v) Igepal (Sigma)] containing GST-KRAS^G12C (final concentration in assay 50 nM) and anti-GST-terbium (Cisbio, France) (final concentration in assay 1 nM). A SOS1^cat working solution was prepared in assay buffer containing SOS1^cat (final concentration 10 nM) and EDA-GTP-DY-647P1 (final concentration 100 nM). An inhibitor control solution was prepared in assay buffer containing EDA-GTP-DY-647P1 (final concentration 100 nM) without SOS1^cat. All steps of the assay were performed at 20° C. A volume of 3 μL of the KRAS^G12C working solution was added to all wells of the test plate using a Multidrop dispenser (Thermo LabSystems). After 15 min, 2 μL of the SOS1^ct working solution was added to all wells, except for the inhibitor control solution wells. After 30 min incubation, HTRF was measured.
(§4) G12D and Wild-type KRAS activation by SOS1cat assays. These assays quantify human SOS1^cat mediated loading of wild-type GST-KRAS^WT-GDP or GST-KRAS^G12D-GDP with a fluorescent GTP analogue. The assay was performed similarly to the KRAS^G12C activation by SOS1^cat assay with the following differences: final concentration of SOS1^cat of 60 nM and final incubation time before measurement of 10 min for KRAS^G12D assay, final concentration of SOS1^cat of 20 nM and final incubation time before measurement of 15 min for wild-type KRAS assay, respectively. GST-KRAS^G12C was replaced by GST-KRAS^WT or GST-KRAS^G12D, respectively, also at 50 nM final concentration.
KRAS^G12D activation by SOS1^cat assay (“On-assay”). This assay quantifies SOS1^cat mediated loading of KRAS^G12D-GDP with a fluorescent GTP analogue. Detection of successful loading was achieved by measuring resonance energy transfer from anti-GST-terbium (FRET donor) bound to GST-KRAS^G12D to the loaded fluorescent GTP analogue (FRET acceptor).

K-Ras-wildtype = K-Ras-wildtype (Homo sapiens, UniProt P01116); assay: K-Ras-wildtype activation by SOS1 (wild-type KRAS activation by SOS1cat assay, HTRF); format: biochemical; conditions: mean, SOS1cat mediated loading of wild-type GST-KRAS-GDP with fluorescent GTP analogue, read-out: K-Ras-wildtype activation by SOS1 IC50 - [mol/l] (mean)
Description: as §1, §2, §3, §4
Wild-type KRAS activation by SOS1^cat assay. This assay quantifies human SOS1^cat mediated loading of wild-type GST-KRAS-GDP with a fluorescent GTP analogue. The assay was performed similarly to the KRAS^G12D activation by SOS1^cat assay just by replacement of GST-KRAS^G12D by wild-type GST-KRAS while concentrations of all components and incubation times were the same.

K-Ras G12D, sequence (P01116 1-188 isoform P01116-2 G12D): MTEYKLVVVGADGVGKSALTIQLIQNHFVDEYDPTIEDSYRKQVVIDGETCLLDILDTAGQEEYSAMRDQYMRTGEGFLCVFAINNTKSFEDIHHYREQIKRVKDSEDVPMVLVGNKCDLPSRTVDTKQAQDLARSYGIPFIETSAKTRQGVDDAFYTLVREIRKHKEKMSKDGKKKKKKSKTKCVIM
K-Ras-wildtype, sequence (P01116 1-188 isoform P01116-2): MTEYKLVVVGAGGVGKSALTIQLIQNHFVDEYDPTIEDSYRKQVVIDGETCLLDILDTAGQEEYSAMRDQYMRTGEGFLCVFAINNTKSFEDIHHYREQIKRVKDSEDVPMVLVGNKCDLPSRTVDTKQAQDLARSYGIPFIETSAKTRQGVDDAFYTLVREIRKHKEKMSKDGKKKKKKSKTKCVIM

Structure (SMILES) | IC50 (K-Ras G12D) | IC50 (K-Ras-wildtype)
C#Cc1c(F)ccc2cc(O)cc(Oc3nc4c(N5CC6CCC(C5)NC6)nc(OC[C@@]56CCCN5C[C@H](F)C6)nc4s3)c12 (relative stereo) [Example 16, 4-[(7-[(1R*,5R*)-3,6-diazabicyclo[3.2.2]nonan-3-yl]-5-{[(2R,7aS)-2-fluorotetrahydro-1H-pyrrolizin-7a(5H)-yl]methoxy}[1,3]thiazolo[5,4-d]pyrimidin-2-yl)oxy]-5-ethynyl-6-fluoronaphthalen-2-ol] | 15.2 nM | 212 nM
C#Cc1c(F)ccc2cc(O)cc(Oc3nc4c(N5CC6CCC(C5)NC6)nc(OC[C@@]56CCCN5C[C@H](F)C6)nc4s3)c12 (single isomer, unassigned) [Example 20, 4-[(7-[(1R*,5R*)-3,6-diazabicyclo[3.2.2]nonan-3-yl]-5-{[(2R,7aS)-2-fluorotetrahydro-1H-pyrrolizin-7a(5H)-yl]methoxy}[1,3]thiazolo[5,4-d]pyrimidin-2-yl)oxy]-5-ethynyl-6-fluoronaphthalen-2-ol] | 8.11 nM | 405 nM
C#Cc1c(F)ccc2cc(O)cc(Oc3nc4c(N5CC6CCC(C5)NC6)nc(OC[C@@]56CCCN5C[C@H](F)C6)nc4s3)c12 (single isomer, unassigned) [Example 21, 4-[(7-[(1S*,5S*)-3,6-diazabicyclo[3.2.2]nonan-3-yl]-5-{[(2R,7aS)-2-fluorotetrahydro-1H-pyrrolizin-7a(5H)-yl]methoxy}[1,3]thiazolo[5,4-d]pyrimidin-2-yl)oxy]-5-ethynyl-6-fluoronaphthalen-2-ol] | 219 nM | 182 nM
C#Cc1c(F)ccc2cc(O)cc(Oc3nc4c(N5C[C@H]6CC(F)[C@@H](C5)N6)nc(OC[C@@]56CCCN5C[C@H](F)C6)nc4s3)c12 (single isomer, unassigned) [Example 24, 5-Ethynyl-6-fluoro-4-[(7-[(1R*,5R*)-6-fluoro-3,8-diazabicyclo[3.2.1]octan-3-yl]-5-{[(2R,7aS)-2-fluorotetrahydro-1H-pyrrolizin-7a(5H)-yl]methoxy}[1,3]thiazolo[5,4-d]pyrimidin-2-yl)oxy]naphthalen-2-ol] | 26.7 nM | 24.1 nM
C#Cc1c(F)ccc2cc(O)cc(Oc3nc4c(N5C[C@H]6CC(F)[C@@H](C5)N6)nc(OC[C@@]56CCCN5C[C@H](F)C6)nc4s3)c12 (single isomer, unassigned) [Example 25, 5-Ethynyl-6-fluoro-4-[(7-[(1R*,5R*)-6-fluoro-3,8-diazabicyclo[3.2.1]octan-3-yl]-5-{[(2R,7aS)-2-fluorotetrahydro-1H-pyrrolizin-7a(5H)-yl]methoxy}[1,3]thiazolo[5,4-d]pyrimidin-2-yl)oxy]naphthalen-2-ol] | 18.7 nM | 69.9 nM
C#Cc1c(F)ccc2cc(O)cc(Oc3nc4c(N5C[C@H]6CC(F)[C@@H](C5)N6)nc(OC[C@@]56CCCN5C[C@H](F)C6)nc4s3)c12 (single isomer, unassigned) [Example 26, 5-Ethynyl-6-fluoro-4-[(7-[(1R*,5R*)-6-fluoro-3,8-diazabicyclo[3.2.1]octan-3-yl]-5-{[(2R,7aS)-2-fluorotetrahydro-1H-pyrrolizin-7a(5H)-yl]methoxy}[1,3]thiazolo[5,4-d]pyrimidin-2-yl)oxy]naphthalen-2-ol] | 26.3 nM | 25.9 nM
C#Cc1c(F)ccc2cc(O)cc(Oc3nc4c(N5C[C@H]6CC(F)[C@@H](C5)N6)nc(OC[C@@]56CCCN5C[C@H](F)C6)nc4s3)c12 (single isomer, unassigned) [Example 27, 5-Ethynyl-6-fluoro-4-[(7-[(1R*,5R*)-6-fluoro-3,8-diazabicyclo[3.2.1]octan-3-yl]-5-{[(2R,7aS)-2-fluorotetrahydro-1H-pyrrolizin-7a(5H)-yl]methoxy}[1,3]thiazolo[5,4-d]pyrimidin-2-yl)oxy]naphthalen-2-ol] | 23.7 nM | 91.2 nM
C#Cc1c(F)ccc2cc(O)cc(Oc3nc4c(N5CC6CCC(C5)N6)nc(OC[C@@]56CCCN5CC(F)C6)nc4s3)c12 (stereo in doubt) [Example 6, 4-{[7-(3,8-diazabicyclo[3.2.1]octan-3-yl)-5-{[(2R,7aS)-2-fluorotetrahydro-1H-pyrrolizin-7a(5H)-yl]methoxy}[1,3]thiazolo[5,4-d]pyrimidin-2-yl]oxy}-5-ethynyl-6-fluoronaphthalen-2-ol] | 1.86 nM and 2.18 nM | 32.8 nM and 33.1 nM
Oc1cc(Oc2nc3c(N4CC5CCC(C4)N5)nc(OCC45CCCN4CCC5)nc3s2)c2ccccc2c1 [Example 1, 4-{[7-(3,8-diazabicyclo[3.2.1]octan-3-yl)-5-(tetrahydro-1H-pyrrolizin-7a(5H)-ylmethoxy)[1,3]thiazolo[5,4-d]pyrimidin-2-yl]oxy}-2-naphthol] | 1000 nM | ≥ 20000 nM
C#Cc1cccc2cc(O)cc(Oc3nc4c(N5CC6CCC(C5)N6)nc(OCC56CCCN5CCC6)nc4s3)c12 [Example 2, 4-{[7-(3,8-diazabicyclo[3.2.1]octan-3-yl)-5-(tetrahydro-1H-pyrrolizin-7a(5H)-ylmethoxy)[1,3]thiazolo[5,4-d]pyrimidin-2-yl]oxy}-5-ethynyl-2-naphthol] | 5.55 nM | 126 nM
Oc1cc(Oc2nc3c(N4C[C@H]5CC[C@@H](C4)N5)nc(OCC45CCCN4CCC5)nc3s2)c2c(F)cccc2c1 [Example 3, 4-({7-[(1R,5S)-3,8-diazabicyclo[3.2.1]octan-3-yl]-5-[(tetrahydro-1H-pyrrolizin-7a(5H)-yl)methoxy][1,3]thiazolo[5,4-d]pyrimidin-2-yl}oxy)-5-fluoronaphthalen-2-ol] | 325 nM | 8140 nM
Cc1cccc2cc(O)cc(Oc3nc4c(N5CC6CCC(C5)N6)nc(OCC56CCCN5CCC6)nc4s3)c12 [Example 4, 4-({7-(3,8-diazabicyclo[3.2.1]octan-3-yl)-5-[(tetrahydro-1H-pyrrolizin-7a(5H)-yl)methoxy][1,3]thiazolo[5,4-d]pyrimidin-2-yl}oxy)-5-methylnaphthalen-2-ol] | 79.8 nM | 1550 nM
C#Cc1c(F)ccc2cc(O)cc(Oc3nc4c(N5C[C@H]6CC[C@@H](C5)N6)nc(OCC56CCCN5CCC6)nc4s3)c12 [Example 5, 4-({7-[(1R,5S)-3,8-diazabicyclo[3.2.1]octan-3-yl]-5-[(tetrahydro-1H-pyrrolizin-7a(5H)-yl)methoxy][1,3]thiazolo[5,4-d]pyrimidin-2-yl}oxy)-5-ethynyl-6-fluoronaphthalen-2-ol] | 3.79 nM | 69.1 nM
Oc1cc(Nc2nc3c(N4CC5CCC(C4)N5)nc(OCC45CCCN4CCC5)nc3s2)c2ccccc2c1 [Example 7, 4-({7-(3,8-diazabicyclo[3.2.1]octan-3-yl)-5-[(tetrahydro-1H-pyrrolizin-7a(5H)-yl)methoxy][1,3]thiazolo[5,4-d]pyrimidin-2-yl}amino)naphthalen-2-ol] | 3360 nM | ≥ 20000 nM
